Measured values published in publication PMC10877564, “Activity of Gut-Derived Nisin-like Lantibiotics against Human Gut Pathogens and Commensals” (ACS Chemical Biology, 2024).
Positions of bridges follow the written chain, without caps; N, C: chain ends. Non-standard residues stand in square brackets, D forms with d. No end group written: not given here. Abu = CC[C@H](N)C(=O)O; Dhb = C/C=C(\N)C(=O)O; Dha = C=C(N)C(=O)O

Experiments:
B. luti MSK.20.18 = assay: MIC assay, anaerobic broth dilution; assay type: cell-based, Blautia luti; details: BHIS, 37 °C, 48 h, 3-fold serial dilution
Excerpt: Antibiotic treatment may result in collateral damage to commensal bacteria in the human microbiome, leading to dysbiosis and susceptibility to various diseases.[44] How lantibiotics impact Gram-positive commensals from the human gut has remained unclear. Therefore, we performed antimicrobial activity tests of these lantibiotics against selected Gram-positive human gut commensals, most of which belong to the Lachnospiraceae family, one of the most abundant bacterial families in the human gut.[27] In general, human gut commensals were more susceptible to the set of investigated lantibiotics compared to pathogens (Figure 3). […]
Isolation of human gut commensal bacteria
Isolation and growth of commensal bacteria was done as previously reported.5 Briefly, fresh donor fecal samples were transferred into an anaerobic chamber (Coy Labs) within 1 h of collection. The anaerobic chamber was maintained using a gas mix consisting of 5% hydrogen, 5% carbon dioxide and 90% nitrogen, and hydrogen was maintained at ~3.0% using an anaerobic gas infuser. […]
(§1) All MIC assays were performed under anaerobic condition. […] Lantibiotics were dissolved in DPBS, and concentrations were determined by BCA assay (Pierce) according to the manufacturer’s protocol. […]

[1] = test system: panel of Gram-positive human pathogens (VRE, MRSA, MRSE, L. monocytogenes, C. difficile); assay: MIC assay against the panel of Gram-positive human pathogens; assay type: cell-based; details: pathogen panel, Figure 3A-E; anaerobic
Excerpt: Next, we set out to test the antimicrobial activities of these purified lantibiotics against a panel of Gram-positive bacteria that are representatives of some of the most prevalent human pathogens: VRE, Methicillin-resistant S. aureus USA300 (MRSA), Methicillin-resistant Staphylococcus epidermidis SK135 (MRSE), Listeria monocytogenes 10403S, and Clostridioides difficile VPI10463. We examined the growth of bacteria in a 96-well plate under a concentration gradient of lantibiotics under anaerobic conditions (Figure S2B).
(§2) Elution Buffer (4 M guanidine hydrochloride, 20 mM Tris HCl, pH 7.5 at 25 °C, 100 mM NaCl, 1 M imidazole). Peptides eluted from the Ni resin were concentrated and desalted using 3 kDa Amicon filters (Millipore). For leader peptide removal, the peptide (1:20 trypsin to peptide) was incubated with the trypsin protease in 50 mM Tris-HCl, pH 8 overnight at 37 °C. Lastly, the core peptides were further purified with HPLC using an Agilent 1200 instrument (Agilent) as specified in general methods. About 1.5 mg recombinant peptide was obtained after HPLC purification per […]
Purification of blauticin from Blautia producta SCSK
Stationary anaerobic culture of BPSCSK was inoculated 1:100 to 1 L BHIS. Culture was incubated on a heating plate at 37 °C with 220 rpm stirring for 2 days in an anaerobic chamber. Bacteria were pelleted with 15,000 x g centrifugation for 15 min. The supernatant was acidified with acetic acid to pH 5.5 and filtered through a 0.22 um filter. Filtered supernatant was loaded onto a HiTrap SP HP column using an AKTA Pure FPLC, which was eluted sequentially with 3 CV of distilled water, 200 mM NaCl, 400 mM NaCl, 600 mM NaCl, 800 mM NaCl, and 1 M NaCl. The 800 mM NaCl eluate was concentrated with a 3 kDa Amicon filter, followed by dialyzation with DPBS using a 3 kDa Amicon filter. Purification of blauticin was confirmed by SDS-PAGE, VRE inhibition in vitro assay, and MALDI-TOF MS. […]
For broth cultures, isolates were grown in pre-reduced BHI supplemented with 5 g/L yeast extract (Difco, BD) and 0.1% L-cysteine under anaerobic condition.
Minimal Inhibition Concentration (MIC) assay
All MIC assays were performed under anaerobic condition. Stationary bacterial culture in BHIS (BHI supplemented with 5 g/L yeast extract and 0.1% L-cysteine) were inoculated 1:100 to wells containing 200 µL BHIS in U-bottom 96-well plates. Lantibiotics were dissolved in DPBS, and concentrations were determined by BCA assay (Pierce) according to the manufacturer’s protocol.
Lantibiotic stock solutions were added to wells to reach desired final concentration, with 3-fold serial dilution across rows to create concentration gradients. Bacteria-inoculated wells without lantibiotics served as control. […]

[2] = test system: D. formicigenerans MSK.17.61; assay: MIC assay, anaerobic broth dilution; assay type: cell-based, Dorea formicigenerans; details: BHIS, 37 °C, 48 h, 3-fold serial dilution
Excerpt: Antibiotic treatment may result in collateral damage to commensal bacteria in the human microbiome, leading to dysbiosis and susceptibility to various diseases.[44] How lantibiotics impact Gram-positive commensals from the human gut has remained unclear. Therefore, we performed antimicrobial activity tests of these lantibiotics against selected Gram-positive human gut commensals, most of which belong to the Lachnospiraceae family, one of the most abundant bacterial families in the human gut.[27] In general, human gut commensals were more susceptible to the set of investigated lantibiotics compared to pathogens (Figure 3).
as §2, §1

nisin A (I[Dhb]AI[Dha]LC[Abu]PGCK[Abu]GALMGCNMK[Abu]A[Abu]CHCSIHV[Dha]K; thioether 8-11, 13-19, 23-26, 25-28, 3-7; UniProt P13068 24-57, looked up) [prototypical class I lantibiotic produced by L. lactis, food preservative; commercial nisin A]
nisin A MIC (B. luti MSK.20.18): 0.0329 µM | inhibitory activity against pathogens based on MIC (ranking in words) [1]: strongest inhibitory activities | nisin A MIC [2]: 0.0110 µM
